Where “and” joins values, the source holds several entries; their conditions need not be identical. Identical values can stand only once.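 Interpolation was linear, between the two tested concentrations surrounding the appropriate level; five concentrations were tested over 48 hours in 96-well plates. Here, GI50 denotes the concentration required for 50% inhibition of growth. At the TGI there is no net growth.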
Legend:
Assay in all cases: inhibition of tumour cell growth, NCI panel, 48 h
U251 CNS = system: U251 CNS
SW-620 colon = system: SW-620 colon
HCT-15 colon = system: HCT-15 colon
SNB-75 CNS = system: SNB-75 CNS
OVCAR-3 ovarian = system: OVCAR-3 ovarian
HOP-92 NSCLC = system: HOP-92 NSCLC

SMILES | GI50 (U251 CNS) | TGI (U251 CNS) | GI50 (SW-620 colon) | TGI (SW-620 colon) | GI50 (HCT-15 colon) | TGI (HCT-15 colon) | TGI (SNB-75 CNS) | GI50 (OVCAR-3 ovarian) | TGI (OVCAR-3 ovarian) | GI50 (HOP-92 NSCLC) | TGI (HOP-92 NSCLC) | GI50 (SNB-75 CNS)
Cc1ccc(Cl)cc1Nc1nc(C(F)(F)F)ccc1C(=O)N1CCN(c2ccc(F)cc2)CC1 | 12.5 µM | 25.5 µM | 12.2 µM | 24.6 µM | 13.2 µM | 29.3 µM | 14.2 µM | 10.7 µM | 24 µM | 12.5 µM | 30.4 µM | 
C=CC1CC12C(=O)C1OC2(C)C2C(=O)c3cc4ccccc4cc3C(=O)C12 (configuration not stated) | 21.1 µM | 56.7 µM |  |  | 11.9 µM | 42.7 µM | > 100 µM |  |  | 20.9 µM | 95.3 µM | 35.5 µM
CCN1CCN(c2ccc(Nc3cc(N(C)C(=O)Nc4c(Cl)c(OC)cc(OC)c4Cl)ncn3)cc2)CC1 | 1.47 µM | 3.71 µM | 2.42 µM | 9.76 µM | 1.87 µM | 8.94 µM | 22.2 µM | 5.67 µM | 15.9 µM | 2.28 µM | 27.3 µM | 5.23 µM
C[C@H]1c2cccc(O)c2C(O)=C2C(=O)[C@]3(O)C(O)=C(C(N)=O)C(=O)[C@@H](N(C)C)[C@@H]3[C@@H](O)[C@@H]21 | 2.98 µM | 11.9 µM | 3.02 µM | 14.6 µM | 3.46 µM | 16 µM | 6.66 µM | 2.5 µM | 6.85 µM | 2.35 µM | 6.18 µM | 1.81 µM
CCC[CH2][Sn]([CH2]CCC)([CH2]CCC)[O]C(=O)CC | 0.168 µM | 0.327 µM | 0.151 µM | 0.301 µM | 0.156 µM | 0.409 µM | 0.349 µM | 0.133 µM | 0.261 µM | 0.137 µM | 0.429 µM | 0.144 µM
CC[C@]12C=CCN3CC[C@@]4(c5ccc(OC)cc5N(C)[C@H]4[C@@](O)(C(=O)OC)[C@@H]1OC(=O)CCC[P+](c1ccccc1)(c1ccccc1)c1ccccc1)[C@@H]32 | 0.487 µM and 0.336 µM | 6.59 µM and 2.64 µM | 1.01 µM and 0.749 µM | 7.04 µM and 11.4 µM | 8.69 µM and 14.2 µM | 20.7 µM and 28.8 µM | 3.58 µM and 1.23 µM | 0.291 µM and 0.447 µM | 2.97 µM and 1.99 µM | 0.0934 µM and 0.241 µM | 0.78 µM and 0.946 µM | 0.554 µM and 0.218 µM
Cc1c2cccnc2c(C)c2c1c1cc(CO)ccc1n2C | 1.93 µM | 11 µM | 1.25 µM | 14.5 µM | 2 µM | 15.4 µM |  | 2.38 µM |  | 2.1 µM | 7.31 µM | 
COc1cc(Nc2cn[nH]c2-c2ccc(Cl)cc2)cc(OC)c1OC | 4.91 µM | 33.3 µM | 3.87 µM | 23.7 µM | 4.35 µM | 50 µM | 7.66 µM | 3.44 µM | 14.4 µM | 2.73 µM | 33.4 µM | 1.14 µM
COCCOc1cc(F)c2c(Nc3ccc(NC(=O)Cn4cc(C(C)C)nn4)cc3)ncnc2c1 | 37.4 µM | > 100 µM | > 100 µM | > 100 µM | > 100 µM | > 100 µM | > 100 µM | > 100 µM | > 100 µM | 5.99 µM | 92 µM | 28.2 µM
Cn1c(=O)c2c(nc(Nc3cc(=O)[nH]c(=O)[nH]3)n2Cc2ccccc2)n(C)c1=O | > 100 µM | > 100 µM | > 100 µM | > 100 µM | > 100 µM | > 100 µM | > 100 µM | > 100 µM | > 100 µM | 7.51 µM | > 100 µM | 12.5 µM
Oc1[nH]c2ccccc2c1N=Nc1ccccc1Cl |  | 47.4 µM |  | > 100 µM |  | > 100 µM | > 79.6 µM |  | > 93.8 µM |  |  | 
CNCCCn1cc(C2=C(c3cn(C)c4ccccc34)C(=O)NC2=O)c2ccccc21 | 3.14 µM | 6.96 µM | 3.72 µM | 8.13 µM | 6.04 µM | 22.7 µM | 2.95 µM | 5.14 µM | 13.8 µM | 2.63 µM | 10.1 µM | 0.281 µM
NC(=NCCCOc1ccc(Cl)cc1)Nc1ccc(C(F)(F)F)cc1 | 1.71 µM | 3.89 µM | 1.99 µM | 5.99 µM | 1.72 µM | 4.15 µM | 7.67 µM | 2.26 µM | 6.14 µM | 0.849 µM | 4.63 µM | 0.914 µM
Clc1coc2nc3ccccc3c(Nc3ccc4c(c3)OCO4)c12 | 1.12 µM | 11.5 µM | 3.22 µM | 12.1 µM | 0.429 µM | 8.05 µM | > 100 µM | 0.596 µM | 2.46 µM | 8 µM | 63.2 µM | 4.36 µM
COc1ccc2c(c1)C(C)Cc1c(Cl)ncnc1N2C (configuration not stated) | 0.478 µM | > 86.4 µM | 0.377 µM | 17.8 µM | 0.402 µM | > 32.3 µM | > 54.6 µM | 0.268 µM | 0.75 µM | 1.25 µM | 7.5 µM | 0.557 µM
CCCCCCCCCC/C=C/CC(=O)SCCNC(=O)CCNC(=O)[C@@H](O)C(C)(C)COP(=O)(O)OP(=O)(O)OCC1OC(n2cnc3c(N)ncnc32)C(O)C1OP(=O)(O)O (some centres not stated) |  | > 10 µM |  | > 10 µM |  | > 10 µM | > 10 µM |  | > 10 µM |  | > 10 µM | 
O=C1NC(=Nc2ccccc2)S/C1=C\c1ccc2ncccc2c1 | > 5.13 µM | > 25 µM | 0.965 µM | > 25 µM | 1.1 µM | > 25 µM | > 25 µM | 1.11 µM | > 25 µM | > 25 µM | > 25 µM | 
Cc1nnc(S(=O)(=O)c2ccc(N=Nc3c(N)nc(N)nc3N)cc2)s1 |  | > 100 µM |  | > 100 µM |  | > 100 µM |  |  | > 100 µM |  | > 100 µM | 
C/C1=C\CC[C@@]2(C)O[C@@H]2[C@H]2OC(=O)[C@@H](CN(C)C)[C@@H]2CC1 | 14.9 µM | 34.4 µM | 3.76 µM | > 100 µM | 15.9 µM | 34.3 µM |  | 12.1 µM | 32.4 µM | 9.87 µM | 29.7 µM | 
OCCN1CN(CCO)CN(c2nc(N3CN(CCO)CN(CCO)C3)nc(N3CN(CCO)CN(CCO)C3)n2)C1 |  |  |  | 1.04 ng/mL |  |  |  | 2.2 ng/mL | 6300 ng/mL | 1.85 ng/mL | 4.52 ng/mL | 
